Active and inactive are the calls of the source. No cut-off for these calls is given here.
What was measured:
SK-OV-3 = assay: Antiproliferative activity against human SKOV3 cells assessed as cell growth inhibition measured after 48 hrs by MTT assay; assay type: functional, cell-based; settings: SK-OV-3, 48 h
HepG2 [1] = assay: Antiproliferative activity against human HepG2 cells assessed as cell growth inhibition measured after 48 hrs by MTT assay; assay type: functional, cell-based; settings: HepG2, 48 h
A549 = assay: Antiproliferative activity against human A549 cells assessed as cell growth inhibition measured after 48 hrs by MTT assay; assay type: functional, cell-based; settings: A549, 48 h
T-24 [2] = assay: Antiproliferative activity against human T24 cells assessed as cell growth inhibition measured after 48 hrs by MTT assay; assay type: functional, cell-based; settings: T-24, 48 h
SMMC-7721 = assay: Antiproliferative activity against human SMMC7721 cells assessed as cell growth inhibition measured after 48 hrs by MTT assay; assay type: functional, cell-based; settings: SMMC-7721, 48 h
L02 = assay: Cytotoxicity against human HL7702 cells assessed as cell growth inhibition measured after 48 hrs by MTT assay; assay type: cell-based; settings: L02, 48 h
HepG2 [3] = assay: Anticancer activity against human HepG2 cells xenografted in mouse assessed as tumor growth inhibition by measuring T/C ratio at 5 mg/kg measured at day 14 relative to control; assay type: functional
HepG2 [4] = assay: Anticancer activity against human HepG2 cells xenografted in mouse assessed as tumor growth inhibition by measuring T/C ratio at 15 mg/kg measured at day 14 relative to control; assay type: functional
HepG2 [5] = assay: Anticancer activity against human HepG2 cells xenografted in mouse assessed as tumor inhibition rate at 5 mg/kg measured at day 14 relative to control; assay type: functional; settings: HepG2, 336 h
HepG2 [6] = assay: Anticancer activity against human HepG2 cells xenografted in mouse assessed as tumor inhibition rate at 15 mg/kg measured at day 14 relative to control; assay type: functional; settings: HepG2, 336 h
[7] = Toxicity in mouse xenografted with human HepG2 cells assessed as effect on body weight at 5 to 15 mg/kg; assay type: organism-based; settings: in vivo
[8] = Toxicity in mouse xenografted with human HepG2 cells assessed as adverse effect at 5 to 15 mg/kg; assay type: organism-based; settings: in vivo
T-24 [9] = assay: Anticancer activity against human T24 cells xenografted in mouse assessed as tumor growth inhibition by measuring T/C ratio at 5 mg/kg measured at day 14 relative to control; assay type: functional
T-24 [10] = assay: Anticancer activity against human T24 cells xenografted in mouse assessed as tumor growth inhibition by measuring T/C ratio at 15 mg/kg measured at day 14 relative to control; assay type: functional
T-24 [11] = assay: Anticancer activity against human T24 cells xenografted in mouse assessed as tumor inhibition rate at 5 mg/kg measured at day 14 relative to control; assay type: functional; settings: T-24, 336 h
T-24 [12] = assay: Anticancer activity against human T24 cells xenografted in mouse assessed as tumor inhibition rate at 15 mg/kg measured at day 14 relative to control; assay type: functional; settings: T-24, 336 h
[13] = Toxicity in mouse xenografted with human T24 cells assessed as effect on body weight at 5 to 15 mg/kg; assay type: organism-based, T-24; settings: in vivo
[14] = Toxicity in mouse xenografted with human T24 cells assessed as adverse effect at 5 to 15 mg/kg; assay type: organism-based, T-24; settings: in vivo
T-24 [15] = assay: Cell cycle arrest in human T24 cells assessed as accumulation at G1 phase at 2.06 uM measured after 24 hrs by propidium iodide staining based fluorescence analysis (reference value: 66.18%); assay type: functional
T-24 [16] = assay: Cell cycle arrest in human T24 cells assessed as accumulation at G2/M phase at 2.06 uM measured after 24 hrs by propidium iodide staining based fluorescence analysis (reference value: 10.16%); assay type: functional
T-24 [17] = assay: Cell cycle arrest in human T24 cells assessed as accumulation at S phase at 2.06 uM measured after 24 hrs by propidium iodide staining based fluorescence analysis (reference value: 23.67%); assay type: functional
T-24 [18] = assay: Cell cycle arrest in human T24 cells assessed as accumulation at G1 phase at 4.13 uM measured after 24 hrs by propidium iodide staining based fluorescence analysis (reference value: 66.18%); assay type: functional
T-24 [19] = assay: Cell cycle arrest in human T24 cells assessed as accumulation at G2/M phase at 4.13 uM measured after 24 hrs by propidium iodide staining based fluorescence analysis (reference value: 10.16%); assay type: functional
T-24 [20] = assay: Cell cycle arrest in human T24 cells assessed as accumulation at S phase at 4.13 uM measured after 24 hrs by propidium iodide staining based fluorescence analysis (reference value: 23.67%); assay type: functional
T-24 [21] = assay: Cell cycle arrest in human T24 cells assessed as accumulation at G1 phase at 8.26 uM measured after 24 hrs by propidium iodide staining based fluorescence analysis (reference value: 66.18%); assay type: functional
T-24 [22] = assay: Cell cycle arrest in human T24 cells assessed as accumulation at G2/M phase at 8.26 uM measured after 24 hrs by propidium iodide staining based fluorescence analysis (reference value: 10.16%); assay type: functional
T-24 [23] = assay: Cell cycle arrest in human T24 cells assessed as accumulation at S phase at 8.26 uM measured after 24 hrs by propidium iodide staining based fluorescence analysis (reference value: 23.67%); assay type: functional
T-24 [24] = assay: Induction of cell cycle arrest in human T24 cells assessed as upregulation of cyclin-B1 expression at 2 to 8 uM by Western blot analysis; assay type: functional, cell-based
T-24 [25] = assay: Induction of cell cycle arrest in human T24 cells assessed as upregulation of cdc-2Ty expression at 2 to 8 uM by Western blot analysis; assay type: functional, cell-based
T-24 [26] = assay: Induction of cell cycle arrest in human T24 cells assessed as upregulation of Wee1 expression at 2 to 8 uM by Western blot analysis; assay type: functional, cell-based
T-24 [27] = assay: Induction of cell cycle arrest in human T24 cells assessed as upregulation of gammaH2AX expression at 2 to 8 uM by Western blot analysis; assay type: functional, cell-based
T-24 [28] = assay: Induction of cell cycle arrest in human T24 cells assessed as upregulation of p21 expression at 2 to 8 uM by Western blot analysis; assay type: functional, cell-based
T-24 [29] = assay: Induction of morphological changes in human T24 cells by AO/EB staining based assay; assay type: functional, cell-based
T-24 [30] = assay: Induction of apoptosis in human T24 cells assessed as pycnosis by AO/EB staining based assay; assay type: functional, cell-based
T-24 [31] = assay: Induction of apoptosis in human T24 cells assessed as membrane blebbing by AO/EB staining based assay; assay type: functional, cell-based
T-24 [32] = assay: Induction of apoptosis in human T24 cells assessed as cell budding by AO/EB staining based assay; assay type: functional
T-24 [33] = assay: Induction of apoptosis in human T24 cells assessed as live cells at 2.06 uM by AnnexinV/propidium iodide staining based flow cytometry (reference value: 99.1%); assay type: functional
T-24 [34] = assay: Induction of apoptosis in human T24 cells assessed as early apoptotic cells at 2.06 uM by AnnexinV/propidium iodide staining based flow cytometry (reference value: 0.7%); assay type: functional
T-24 [35] = assay: Induction of apoptosis in human T24 cells assessed as late apoptotic cells at 2.06 uM by AnnexinV/propidium iodide staining based flow cytometry (reference value: 0%); assay type: functional
T-24 [36] = assay: Induction of apoptosis in human T24 cells assessed as necrotic cells at 2.06 uM by AnnexinV/propidium iodide staining based flow cytometry (reference value: 0.1%); assay type: functional
T-24 [37] = assay: Induction of apoptosis in human T24 cells assessed as live cells at 4.13 uM by AnnexinV/propidium iodide staining based flow cytometry (reference value: 99.1%); assay type: functional
T-24 [38] = assay: Induction of apoptosis in human T24 cells assessed as early apoptotic cells at 4.13 uM by AnnexinV/propidium iodide staining based flow cytometry (reference value: 0.7%); assay type: functional
T-24 [39] = assay: Induction of apoptosis in human T24 cells assessed as late apoptotic cells at 4.13 uM by AnnexinV/propidium iodide staining based flow cytometry (reference value: 0%); assay type: functional
T-24 [40] = assay: Induction of apoptosis in human T24 cells assessed as necrotic cells at 4.13 uM by AnnexinV/propidium iodide staining based flow cytometry (reference value: 0.1%); assay type: functional
T-24 [41] = assay: Induction of apoptosis in human T24 cells assessed as live cells at 8.26 uM by AnnexinV/propidium iodide staining based flow cytometry (reference value: 99.1%); assay type: functional
T-24 [42] = assay: Induction of apoptosis in human T24 cells assessed as early apoptotic cells at 8.26 uM by AnnexinV/propidium iodide staining based flow cytometry (reference value: 0.7%); assay type: functional
T-24 [43] = assay: Induction of apoptosis in human T24 cells assessed as late apoptotic cells at 8.26 uM by AnnexinV/propidium iodide staining based flow cytometry (reference value: 0%); assay type: functional
T-24 [44] = assay: Induction of apoptosis in human T24 cells assessed as necrotic cells at 8.26 uM by AnnexinV/propidium iodide staining based flow cytometry (reference value: 0.1%); assay type: functional
T-24 [45] = assay: Induction of apoptosis in human T24 cells by AnnexinV/propidium iodide staining based flow cytometry; assay type: functional, cell-based
T-24 [46] = assay: Induction of apoptosis in human T24 cells assessed as […] of Bcl-2 expression at 2 to 8 uM by Western blot analysis; assay type: functional, cell-based
T-24 [47] = assay: Induction of apoptosis in human T24 cells assessed as upregulation of cytosolic cytochrome-C expression at 2 to 8 uM by Western blot analysis; assay type: functional, cell-based
T-24 [48] = assay: Induction of apoptosis in human T24 cells assessed as […] of Bax expression at 2 to 8 uM by Western blot analysis; assay type: functional, cell-based
DNA [49] = assay: Binding affinity to supercoiled circular Escherichia coli pBR322 DNA assessed as DNA intercalation at 20 to 100 uM by gel electrophoresis mobility shift assay; assay type: nucleic-acid assay
[50] = molecular target: T1, DNA topoisomerase 1 (Homo sapiens) (UniProt P11387); assay: Inhibition of topoisomerase 1 (unknown origin) mediated DNA relaxation at 20 uM by gel electrophoresis assay
T1 sequence (whole entry): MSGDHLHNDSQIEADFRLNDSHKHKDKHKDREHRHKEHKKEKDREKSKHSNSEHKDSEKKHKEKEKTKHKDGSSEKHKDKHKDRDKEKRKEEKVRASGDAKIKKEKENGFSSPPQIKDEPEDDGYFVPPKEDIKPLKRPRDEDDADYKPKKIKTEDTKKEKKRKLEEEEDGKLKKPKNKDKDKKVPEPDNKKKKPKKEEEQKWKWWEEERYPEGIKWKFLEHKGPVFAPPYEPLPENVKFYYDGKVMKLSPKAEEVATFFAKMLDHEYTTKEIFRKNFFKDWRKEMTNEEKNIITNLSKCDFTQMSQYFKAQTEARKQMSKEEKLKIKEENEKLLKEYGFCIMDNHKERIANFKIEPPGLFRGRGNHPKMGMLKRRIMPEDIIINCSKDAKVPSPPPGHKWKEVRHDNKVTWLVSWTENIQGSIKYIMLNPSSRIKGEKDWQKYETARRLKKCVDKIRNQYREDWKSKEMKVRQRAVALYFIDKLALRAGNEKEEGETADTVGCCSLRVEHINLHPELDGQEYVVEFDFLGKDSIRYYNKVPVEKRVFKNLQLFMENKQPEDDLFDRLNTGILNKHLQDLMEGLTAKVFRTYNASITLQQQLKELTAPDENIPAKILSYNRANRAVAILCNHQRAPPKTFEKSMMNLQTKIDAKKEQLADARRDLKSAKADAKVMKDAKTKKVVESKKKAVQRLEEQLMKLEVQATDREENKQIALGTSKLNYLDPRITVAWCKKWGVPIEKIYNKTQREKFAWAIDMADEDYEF

DNA [51] = assay: Induction of DNA damage in human T24 cells assessed as inhibition of DNA replication at 10 uM measured after 24 hrs by EdU incorporation assay; assay type: cell-based; settings: T-24
DNA [52] = assay: Induction of Escherichia coli supercoiled circular pBR322 DNA cleavage at 20 to 100 uM by gel electrophoresis mobility shift assay; assay type: nucleic-acid assay

IC50 (SK-OV-3): 20.7 µM
IC50 (HepG2 [1]): 9.2 µM
IC50 (A549): 12.6 µM
IC50 (SMMC-7721): 14 µM
Activity (DNA [49]): Active
inhibition [50]: Active
Activity (DNA [52]): inactive
Compound: CNCCN1C(=O)c2cccc3cc([N+](=O)[O-])cc(c23)C1=O
IC50 (T-24 [2]): 4.13 µM
IC50 (L02): 18.7 µM
T/C (HepG2 [3]): 66.7%
T/C (HepG2 [4]): 38.6%
inhibition in vivo at 5 mg/kg (HepG2 [5]): 26.8%
inhibition in vivo at 15 mg/kg (HepG2 [6]): 60%
Activity [7]: Non-Toxic
Activity [8]: Non-Toxic
T/C (T-24 [9]): 62.9%
T/C (T-24 [10]): 38.4%
inhibition in vivo at 5 mg/kg (T-24 [11]): 30.1%
inhibition in vivo at 15 mg/kg (T-24 [12]): 58.7%
Activity [13]: Non-Toxic
Activity [14]: Non-Toxic
Activity (T-24 [15]): 50.17%
Activity (T-24 [16]): 30.01%
Activity (T-24 [17]): 19.81%
Activity (T-24 [18]): 9.9%
Activity (T-24 [19]): 82.11%
Activity (T-24 [20]): 7.99%
Activity (T-24 [21]): 0.05%
Activity (T-24 [22]): 92.24%
Activity (T-24 [23]): 7.71%
Activity (T-24 [24]): Active
Activity (T-24 [25]): Active
Activity (T-24 [26]): Active
Activity (T-24 [27]): Active
Activity (T-24 [28]): Active
Activity (T-24 [29]): Active
Activity (T-24 [30]): Active
Activity (T-24 [31]): Active
Activity (T-24 [32]): Active
Activity (T-24 [33]): 98.8%
Activity (T-24 [34]): 0.9%
Activity (T-24 [35]): 0%
Activity (T-24 [36]): 0.2%
Activity (T-24 [37]): 94.3%
Activity (T-24 [38]): 5.4%
Activity (T-24 [39]): 0%
Activity (T-24 [40]): 0.1%
Activity (T-24 [41]): 76.6%
Activity (T-24 [42]): 23.4%
Activity (T-24 [43]): 0%
Activity (T-24 [44]): 0%
Activity (T-24 [45]): Dose-dependent effect
Activity (T-24 [46]): Active
Activity (T-24 [47]): Active
Activity (T-24 [48]): Active
Activity (DNA [51]): Active
